Experimental findings from paper PMC9933483, “Tail-Approach-Based Design and Synthesis of Coumarin-Monoterpenes as Carbonic Anhydrase Inhibitors and Anticancer Agents” (ACS Omega, 2023) are described below.

One data set relates to HEK293T cell line. In words: Cell cytotoxicity, MTT assay. Type of data set: cell-based. As to conditions: Homo sapiens, HEK-293T, 24 h, healthy cell line.
The subject of the next data set is HT-29 cell line. In words: Cell cytotoxicity, MTT assay. Type of data set: cell-based, human. The note with it: Homo sapiens, HT-29; MTT, 24 h.
The subject of a further data set is PC-3 cell line. In words: Cell cytotoxicity, MTT assay. Type of data set: cell-based. The note with it: Homo sapiens, 24 h.
Another data set has as its system MCF-7 cell line. In words: Cell cytotoxicity, MTT assay. Type of data set: cell-based, human. As to conditions: Homo sapiens, MCF7, 24 h.
The target in another data set is hCA IX (Homo sapiens, UniProt Q16790). In words: biochemical.

`CC1CCC(C(C)C)C(OCc2cn(CCCOc3ccc4ccc(=O)oc4c3)nn2)C1` (centres unmarked) [Compound 37, 7-(3-(4-(((2-Isopropyl-5-methylcyclohexyl)oxy)methyl)-1H-1,2,3-triazol-1-yl)propoxy)-2H-chromen-2-one]: the melting point was in the range of 78 to 79 °C. This molecule also yielded an IC50 in the data set with HEK293T cell line of 24.2 ± 3.2 µM. In the data set with HT-29 cell line, the IC50 amounted to 39.9 ± 11.8 µM. The IC50 with PC-3 cell line was 29.1 ± 6.83 µM. The molecule further yielded an IC50 in the data set on MCF-7 cell line of 18.4 ± 3.81 µM.
On to `C=CCc1ccc(OCc2cn(CCCCCCCOc3ccc4ccc(=O)oc4c3)nn2)c(OC)c1` [Compound 32, 7-((7-(4-((4-Allyl-2-methoxyphenoxy)methyl)-1H-1,2,3-triazol-1-yl)heptyl)oxy)-2H-chromen-2-one], for which the melting point is 101 to 102 °C. Further, the concentration for half-maximal inhibition (IC50) in the data set with HEK293T cell line was found to be 40.6 ± 13.7 µM. Moreover, the IC50 in the data set with HT-29 cell line was found to be 16.3 ± 5.34 µM. In the data set with PC-3 cell line, this molecule showed a half-maximal inhibitory concentration (IC50) of 36.7 ± 29 µM. In addition, the half-inhibitory concentration (IC50) in the data set with MCF-7 cell line was greater than 200 µM.
Molecule `CC1CCC(C(C)C)C(OCc2cn(CCCCCCCCCCCCOc3ccc4ccc(=O)oc4c3)nn2)C1` (centres unmarked) [Compound 43, 7-((12-(4-(((2-Isopropyl-5-methylcyclohexyl)oxy)methyl)-1H-1,2,3-triazol-1-yl)dodecyl)oxy)-2H-chromen-2-one] came in with a melting point of 59 to 60 °C. In the data set on HEK293T cell line, this molecule returned a half-maximal inhibitory concentration (IC50) of 50.6 ± 8.63 µM. The same molecule had an IC50 with HT-29 cell line of 27.2 ± 6.18 µM. In addition, on hCA IX, the Ki was 0.0025 µM. For the same molecule, the midpoint of inhibition in the data set on PC-3 cell line, the IC50, lay at 32.3 ± 9.99 µM. The molecule also gave an IC50 in the data set on MCF-7 cell line of 77.2 ± 34.8 µM.
As to `Cc1ccc(C(C)C)cc1OCc1cn(CCCCCCCOc2ccc3ccc(=O)oc3c2)nn1` [Compound 24, 7-((7-(4-((5-Isopropyl-2-methylphenoxy)methyl)-1H-1,2,3-triazol-1-yl)heptyl)oxy)-2H-chromen-2-one], the melting point was in the range of 83 to 84 °C. In addition, the IC50 with HEK293T cell line worked out at 134 ± 60.4 µM. Further, in the data set on HT-29 cell line, the IC50 is 56.9 ± 18.2 µM. At hCA IX, this molecule showed a Ki of 0.0327 µM. Besides, the half-inhibitory concentration (IC50) with PC-3 cell line was greater than 200 µM. The IC50 with MCF-7 cell line is greater than 200 µM.
`C=CCc1ccc(OCc2cn(CCCCOc3ccc4ccc(=O)oc4c3)nn2)c(OC)c1` [Compound 30, 7-(4-(4-((4-Allyl-2-methoxyphenoxy)methyl)-1H-1,2,3-triazol-1-yl)butoxy)-2H-chromen-2-one] displayed a melting point of 73 to 74 °C. Moreover, the half-inhibitory concentration (IC50) with HEK293T cell line is 26.8 ± 2.44 µM. For the same molecule, half-maximal inhibition in the data set on HT-29 cell line (IC50) required 41.8 ± 13.5 µM. In the data set with PC-3 cell line, this molecule showed a 50% inhibitory concentration (IC50) of 57.6 ± 23.9 µM. The same molecule returned an IC50 with MCF-7 cell line of 51.2 ± 27 µM.
The molecule `C=CCc1ccc(OCc2cn(CCCOc3ccc4ccc(=O)oc4c3)nn2)c(OC)c1` [Compound 29, 7-(3-(4-((4-Allyl-2-methoxyphenoxy)methyl)-1H-1,2,3-triazol-1-yl)propoxy)-2H-chromen-2-one] showed a melting point of 88 to 89 °C. For the same molecule, the IC50 in the data set with HEK293T cell line amounted to 34.1 ± 8.6 µM. In the data set on HT-29 cell line, this molecule returned an IC50 of 23.5 ± 7.22 µM. The molecule also registered an IC50 in the data set with PC-3 cell line of 32.4 ± 9.16 µM. For the same molecule, inhibition in the data set with MCF-7 cell line was half-maximal at 20.6 ± 6.5 µM (IC50).
For the molecule `C=CCc1ccc(OCCOc2ccc3ccc(=O)oc3c2)c(OC)c1` [Compound 60, 7-(2-(4-Allyl-2-methoxyphenoxy)ethoxy)-2H-chromen-2-one], the melting point was 86 to 87 °C. Further, the IC50 with HEK293T cell line was greater than 80 µM. In the data set with HT-29 cell line, this molecule displayed an IC50 greater than 80 µM. In addition, the Ki at hCA IX is 0.176 µM. In the data set on PC-3 cell line, the IC50 worked out at 31.5 ± 8.71 µM. The IC50 in the data set with MCF-7 cell line turned out to be 18.5 ± 3.59 µM.
